In US6342504B1, “Aromatic heterocyclic derivatives as enzyme inhibitors” (priority 1994, dated 2002):
pIC50: −log10 of the molar value. Counter-ions that a name gives are not always drawn. Like-named read-outs stand apart in the source and are kept apart here.

Legend:
human plasmin = human plasmin (Homo sapiens, UniProt P00747); experiment: biochemical; details: 30 minute incubation
Protocol: (§1) The ability of compounds of the present invention to act as a selective inhibitor of thrombin catalytic activity was assessed by determining the concentration of compound which inhibited the activity of this enzyme by 50%, (IC50), and comparing this value to that determined for all or some of the following related serine proteases: recombinant tissue plasminogen activator (rt-PA), plasmin, activated protein C, chymotrypsin, factor Xa and trypsin.
(§2) The buffer used for all assays was HBSA (10 mM HEPES, pH 7.5, 150 mM sodium chloride, 0.1% bovine serum albumin).
(§3) The assay for IC50 determinations was conducted by combining in appropriate wells of a Corning microtiter plate, 50 microliters of HBSA, 50 microliters of the test compound at a specified concentration (covering a broad concentration range) diluted in HBSA (or HBSA alone for VO (uninhibited velocity) measurement), and 50 microliters of the enzyme diluted in HBSA. Following a 30 minute incubation at ambient temperature, 50 microliters of the substrate at the concentrations specified below were added to the wells, yielding a final total volume of 200 microliters. The initial velocity of chromogenic substrate hydrolysis was measured by the change in absorbance at 405 nm using a Thermo Max® Kinetic Microplate Reader over a 5 minute period in which less than 5% of the added substrate was utilized. The concentration of added inhibitor which caused a 50% decrease in the initial rate of hydrolysis was defined as the IC50 value.
Plasmin catalytic activity was determined using the chromogenic substrate, S-2366 [L-pyroglutomyl-L-prolyl-L-arginine-p-nitroaniline hydrochloride], which was obtained from Pharmacia-Upjohn. The substrate was made up in deionized water followed by dilution in HBSA prior to the assay in which the final concentration was 300 micromolar (about 2.5-times Km). Purified human plasmin was obtained from Enzyme Research Laboratories, Inc. The enzyme was diluted into HBSA prior to assay in which the final concentration was […].

human alpha thrombin = target: T1, human alpha thrombin (Homo sapiens, UniProt P00734); experiment: Thrombin (fIIa) IC50 assay, chromogenic substrate Pefachrome t-PA; type: biochemical
T1 construct: Purified human alpha-thrombin; purchased Enzyme Research Laboratories, Inc
Protocol: as §1, §2, §3
Enzyme activity was determined using the chromogenic substrate, Pefachrome t-PA (CH3SO2-D-hexahydrotyrosine-glycyl-L-Arginine-p-nitroaniline, obtained from Pentapharm Ltd.). The substrate was reconstituted in deionized water prior to use. Purified human a-thrombin was obtained from Enzyme Research Laboratories, Inc. The buffer used for all assays was HBSA (10 mM HEPES, pH 7.5, 150 mM sodium chloride, 0.1% bovine serum albumin).
IC50 determinations were conducted where HBSA ([…]), a-thrombin (50 μl) and inhibitor (50 μl) (covering a broad concentration range), were combined in appropriate wells and incubated for 30 minutes at room temperature prior to the addition of substrate Pefachrome-t-PA (50 μl). The initial velocity of Pefachrome t-PA hydrolysis was measured by the change in absorbance at 405 nm using a Thermo Max® Kinetic Microplate Reader over a 5 minute period in which less than 5% of the added substrate was utilized. The concentration of added inhibitor which caused a 50% decrease in the initial rate of hydrolysis was defined as the IC50 value.

human aPC = target: T2, human aPC (Homo sapiens, UniProt P04070); experiment: biochemical; details: 30 minute incubation; for pIC50: read-out: aPC (IC50) (Table 3A)
T2 construct: purchased Hematologic Technologies, Inc
Protocol: as §2
Following a 30 minute incubation at ambient temperature, 50 microliters of the substrate at the concentrations specified below were added to the wells, yielding a final total volume of 200 microliters.
Activated Protein C (aPC) Assay
aPC catalytic activity was determined using the chromogenic substrate, Pefachrome PC (delta-carbobenzloxy-D-lysine-L-prolyl-L-arginine-p-nitroaniline dihydrochloride), obtained from Pentapharm Ltd.). […] Purified human aPC was obtained from Hematologic Technologies, Inc. The enzyme was diluted into HBSA prior to assay in which the final concentration was 1.0 nM.

Human rt-PA (Activase) = target: T3, Human rt-PA (Activase) (Homo sapiens, UniProt P00750); experiment: biochemical; details: 30 minute incubation
T3 construct: purchased Genentech Inc
Protocol: as §1, §2, §3
Recombinant Tissue Plasminogen Activator (rt-PA) Assay
rt-PA catalytic activity was determined using the substrate, Pefachrome t-PA (CH3SO2-D-hexahydrotyrosine-glycyl-L-arginine-p-nitroaniline, obtained from Pentapharm Ltd.). The substrate was made up in deionized water followed by dilution in HBSA prior to the assay in which the final concentration was 500 micromolar (about 3-times Km). Human rt-PA (Activase®) was obtained from Genentech Inc. The enzyme was reconstituted in deionized water and diluted into HBSA prior to the assay in which the final concentration was 1.0 nM.

[1] = read-out: Plasmin (IC50) (Table 3A)
[2] = read-out: rt-PA (IC50) (Table 3A)
[3] = read-out: Plasmin IC50 (Table 3B)
[4] = 30 minute incubation, read-out: Thrombin IC50 (Table 3C)

human plasmin, sequence (P00747 97-580): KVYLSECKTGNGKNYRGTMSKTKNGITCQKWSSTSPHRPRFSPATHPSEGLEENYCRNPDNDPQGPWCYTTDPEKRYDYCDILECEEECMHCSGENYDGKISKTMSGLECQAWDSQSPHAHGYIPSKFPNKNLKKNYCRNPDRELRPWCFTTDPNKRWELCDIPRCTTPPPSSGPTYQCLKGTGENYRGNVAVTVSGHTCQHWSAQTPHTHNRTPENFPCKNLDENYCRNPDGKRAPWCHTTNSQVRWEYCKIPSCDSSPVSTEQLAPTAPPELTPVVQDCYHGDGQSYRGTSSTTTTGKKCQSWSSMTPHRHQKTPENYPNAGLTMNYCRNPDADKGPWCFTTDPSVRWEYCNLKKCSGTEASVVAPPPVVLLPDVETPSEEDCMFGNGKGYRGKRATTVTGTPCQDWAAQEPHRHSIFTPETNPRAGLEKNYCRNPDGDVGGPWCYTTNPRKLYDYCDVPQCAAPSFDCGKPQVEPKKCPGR
human plasmin, sequence (P00747 581-810): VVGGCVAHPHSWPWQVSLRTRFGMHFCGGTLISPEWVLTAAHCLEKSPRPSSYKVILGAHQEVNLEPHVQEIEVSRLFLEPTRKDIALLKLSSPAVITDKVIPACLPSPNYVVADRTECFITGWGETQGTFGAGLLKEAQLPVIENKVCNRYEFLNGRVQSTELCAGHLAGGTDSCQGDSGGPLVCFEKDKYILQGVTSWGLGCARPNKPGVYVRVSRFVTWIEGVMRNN
T2 sequence (P04070 43-197): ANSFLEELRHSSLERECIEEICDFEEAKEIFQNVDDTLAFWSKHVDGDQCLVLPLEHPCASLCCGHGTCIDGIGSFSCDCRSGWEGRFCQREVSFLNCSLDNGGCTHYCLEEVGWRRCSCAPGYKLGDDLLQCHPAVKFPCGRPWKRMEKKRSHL
T2 sequence (P04070 212-461): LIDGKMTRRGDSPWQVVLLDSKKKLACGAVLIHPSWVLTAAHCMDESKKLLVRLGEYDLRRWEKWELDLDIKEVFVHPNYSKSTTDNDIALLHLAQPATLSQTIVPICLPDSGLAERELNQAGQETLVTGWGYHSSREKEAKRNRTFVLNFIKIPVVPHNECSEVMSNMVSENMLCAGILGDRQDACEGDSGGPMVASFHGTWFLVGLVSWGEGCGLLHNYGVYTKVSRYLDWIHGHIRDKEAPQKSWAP
T3 sequence (P00750 36-562): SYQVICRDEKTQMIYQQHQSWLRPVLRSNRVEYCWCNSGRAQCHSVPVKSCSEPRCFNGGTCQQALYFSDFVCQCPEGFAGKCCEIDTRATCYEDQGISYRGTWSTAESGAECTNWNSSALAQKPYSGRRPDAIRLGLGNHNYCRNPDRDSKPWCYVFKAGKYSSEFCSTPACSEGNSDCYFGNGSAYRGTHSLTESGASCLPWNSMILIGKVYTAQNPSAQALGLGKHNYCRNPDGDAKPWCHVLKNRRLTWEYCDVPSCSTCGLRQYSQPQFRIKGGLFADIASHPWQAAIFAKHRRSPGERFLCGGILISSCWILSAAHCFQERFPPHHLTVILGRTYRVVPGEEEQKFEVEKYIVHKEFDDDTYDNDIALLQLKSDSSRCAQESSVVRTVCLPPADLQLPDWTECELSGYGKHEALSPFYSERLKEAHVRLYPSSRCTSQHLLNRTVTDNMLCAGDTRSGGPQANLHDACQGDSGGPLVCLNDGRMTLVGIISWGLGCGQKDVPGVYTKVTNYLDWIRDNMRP

Molecule	pIC50 (human plasmin; [1])	pIC50 (human alpha thrombin)	pIC50 (human aPC)	pIC50 (Human rt-PA (Activase); [2])	pIC50 (human plasmin; [3])	other results
Cc1ccc(F)cc1S(=O)(=O)Nc1cccn(CC(=O)N[C@H](C=O)CCCNC(=N)N)c1=O [2-Me, 5-F-phenyl, [3-(2-methyl-5-fluorophenyl)sulfonylamino-2-oxo-1,2-dihydro-pyridyl]acetyl-L-argininal]	< 5.60	8.71	< 5.60	< 5.60		
COc1ccc(Cl)cc1S(=O)(=O)Nc1cccn(CC(=O)NC(C=O)CCCNC(=N)N)c1=O [2-OMe, 5-Cl-phenyl, (5-chloro-2-methoxy-phenylsulfonyl-3-amino-2-oxo-1,2-dihydropyridyl)acetyl-L-Argininal, trifluoroacetate salt]	< 5.60	8.94	< 5.60	< 5.60		
N=C(N)NCCC[C@@H](C=O)NC(=O)Cn1cccc(NS(=O)(=O)c2ccccc2C(F)(F)F)c1=O [Compound 2-CF3-phenyl]	< 5.60	8.25	< 5.60	< 5.60		
Cc1ccccc1S(=O)(=O)Nc1cccn(CC(=O)N[C@H](C=O)CCCNC(=N)N)c1=O [Compound 2-Me-phenyl, [3-(2-methylphenyl)sulfonylamino-2-oxo-1,2-dihydropyridyl]acetyl-L-argininal]	< 5.60	8.85	< 5.60	< 5.60		
N=C(N)NCCC[C@@H](C=O)NC(=O)Cn1cccc(NS(=O)(=O)c2ccccc2N)c1=O [Compound 2-NH2phenyl, [3-(2-aminophenyl)sulfonylamino-2-oxo-1,2-dihydropyridyl]acetyl-L-argininal]	< 5.60	8.43	< 5.60	< 5.60		
COc1ccccc1S(=O)(=O)Nc1cccn(CC(=O)N[C@H](C=O)CCCNC(=N)N)c1=O [Compound 2-OMe-phenyl, [3-(2-methoxylphenyl)sulfonylamino-2-oxo-1,2-dihydropyridyl]acetyl-L-argininal]	< 5.60	8.70	< 5.60	< 5.60		
N=C(N)NCCC[C@@H](C=O)NC(=O)Cn1cccc(NS(=O)(=O)c2cccc(C(F)(F)F)c2)c1=O [Compound 3-CF3-phenyl, [3-(3-trifluoromethylphenyl)sulfonylamino-2-oxo-1,2-dihydro-pyridyl]acetyl-L-argininal]	< 5.60	8.51	< 5.60	< 5.60		
Cc1cccc(S(=O)(=O)Nc2cccn(CC(=O)N[C@H](C=O)CCCNC(=N)N)c2=O)c1 [Compound 3-Me-phenyl, [3-(3-methyiphenyl)sulfonylamino-2-oxo-1,2-dihydro-pyridyl]acetyl-L-argininal]	< 5.60	9.07	< 5.60	< 5.60		
COc1cccc(S(=O)(=O)Nc2cccn(CC(=O)N[C@H](C=O)CCCNC(=N)N)c2=O)c1 [Compound 3-OMe-phenyl, [3-(3-methoxylphenyl)sulfonylamino-2-oxo-1,2-dihydropyridyl]acetyl-L-argininal]	< 5.60	9.19	< 5.60	< 5.60		
N=C(N)NCCC[C@@H](C=O)NC(=O)Cn1cccc(NS(=O)(=O)c2ccccc2F)c1=O [Compound 121A]		7.83			< 5.60	
COc1ccc(OC)c(S(=O)(=O)Nc2cccn(CC(=O)N[C@H](C=O)CCCNC(=N)N)c2=O)c1 [Compound 121E, [3-(2,5-dimethoxyphenyl)sulfonylamino-2-oxo-1,2-dihydropyridyl]acetyl-L-argininal]		9.22			< 5.60	aPC IC50 (Table 3B) (human aPC): inactive; rtPA IC50 (Table 3B) (Human rt-PA (Activase)): inactive
N=C(N)NCCC[C@@H](C=O)NC(=O)Cn1cccc(NS(=O)(=O)CCc2ccccc2)c1=O [Compound 121G, [3-(phenethyl)sulfonylamino-2-oxo-1,2-dihydropyridyl]acetyl-L-argininal]		7.33			~5.60	
N=C(N)NCCC[C@@H](C=O)NC(=O)Cn1cccc(NS(=O)(=O)Cc2ccccc2F)c1=O [Compound 121J]		9.12			< 5.60	aPC IC50 (Table 3B) (human aPC): inactive; pIC50 (Human rt-PA (Activase); read-out: rtPA IC50 (Table 3B)): < 5.60
N=C(N)NCCC[C@@H](C=O)NC(=O)Cn1cccc(NS(=O)(=O)Cc2cccc(F)c2)c1=O [Compound 121K]		9.05			< 5.60	aPC IC50 (Table 3B) (human aPC): inactive; rtPA IC50 (Table 3B) (Human rt-PA (Activase)): inactive
COC(=O)c1ccccc1CS(=O)(=O)Nc1cccn(CC(=O)N[C@H](C=O)CCCNC(=N)N)c1=O [Compound 121M]		9.21			< 5.60	
N=C(N)NCCC[C@@H](C=O)NC(=O)Cn1cccc(NS(=O)(=O)Cc2cc(F)ccc2F)c1=O [Compound 121P, [3-(2,5-difluorobenzyl)sulfonylamino-2-oxo-1,2-dihydropyridyl]acetyl-L-argininal]		8.76			< 5.60	aPC IC50 (Table 3B) (human aPC): inactive; pIC50 (Human rt-PA (Activase); read-out: rtPA IC50 (Table 3B)): < 5.60
Cc1ccc(F)cc1S(=O)(=O)Nc1ccc(C)n(CC(=O)N[C@H](C=O)CCCNC(=N)N)c1=O [Compound 126B, [3-(5-fluoro-2-methylphenyl)sulfonylamino-6-methyl-2-oxo-1,2-dihydro-pyridyl]acetyl-L-argininal]		9.05			< 5.60	aPC IC50 (Table 3B) (human aPC): inactive; rtPA IC50 (Table 3B) (Human rt-PA (Activase)): inactive
COc1cccc(S(=O)(=O)Nc2ccc(=O)n(CC(=O)N[C@H](C=O)CCCNC(=N)N)c2)c1OC [Compound 152B, [5-(2,3-dimethoxy-benzene)sulfonylamino-2-oxo-1,2-dihydropyridyl]acetyl-L-argininal]						pIC50 (human alpha thrombin; [4]): 7.83
Cc1ccc(NS(=O)(=O)Cc2ccccc2)c(=O)n1CC(=O)N[C@H](C=O)CCCNC(=N)N [Compound C, (3-benzylsulfonylamino-6-methyl-2-oxo-1,2-dihydro-1-pyridyl)acetyl-L-argininal, trifluoroacetate salt]		9.33				pIC50 (human plasmin; read-out: IC50 Plasmin (Table 2)): < 5.60
[2,3-methylenedioxy-benzene)sulfonylamino-2-oxo-1,2-dihydropyridyl]acetyl-L-argininal [Compound 152D]						pIC50 (human alpha thrombin; [4]): 9.10
[5-(1,3-benzodioxole)sulfonylalmino-6-methyl-2-oxo-1,2-dihydro-pyridyl]acetyl-L-argininal [Compound 153D]						pIC50 (human alpha thrombin; [4]): 9.51
[5-(1,3-benzodioxole)sulfonylamino-2-oxo-1,2-dihydropyridyl]acetyl-L-argininal [Compound 152A]						pIC50 (human alpha thrombin; [4]): 9.09
[5-(1,4-benzodioxan)sulfonylamino-6-methyl-2-oxo-1,2-dihydro-pyridyl]acetyl-L-argininal [Compound 153B]						pIC50 (human alpha thrombin; [4]): 9.56
[5-(2,3-dihydrobenzofuran)sulfonylamino-6-methyl-2-oxo-1,2-dihydro-pyridyl]acetyl-L-argininal [Compound 153C]						pIC50 (human alpha thrombin; [4]): 9.58
[5-(2,3-dioxaspirocyclohexyl)-sulfonylamino-2-oxo-1,2-dihydropyridyl]acetyl-L-argininal [Compound 152C]						pIC50 (human alpha thrombin; [4]): 8.22
